Laboratory results published in patent publication US20110294721A1, “ANTIMICROBIAL PEPTIDES” (priority 2008, published 2011).
No end group written: not given here.

Columns and labels:
Alternaria alternata = test: MIC in-vitro inhibition assay, antifungal (Example 2); format: cell-based; conditions: complete inhibition of spore germination/mycelial growth; Table 1
Protocol: (§1) In-vitro inhibition assays were performed in sterile flat-bottom 96-well plates (Greiner bio-one, Frickenhausen). Antimicrobial peptides were dissolved in 0.01% acetic acid containing 0.2% BSA (500 μg/ml), filter sterilized and stored at −20° C. For inhibition assays dilutions of peptides ranging from 5 to 200 μg/ml were prepared and 10 μl (antibacterial assay) or 20 μl (antifungal assay) of each concentration was loaded per well.
(§2) Spores of fungi were collected by water washes of sporulating cultures grown on 2% malt extract agar and spore concentration was determined by microscopy. The concentration of the spores was adjusted to 1.5-2×10^3 spores/ml in 2% malt extract medium and 80 μl of fungal spores were added per well. The final peptide concentrations used in the fungal inhibition assays were 0, 2, 4, 10, 20, 40, and 100 μg/ml. After overnight incubation at room temperature the plate were put on a rotary shaker (300 rpm) for further two days to ensure consistantly growth. Antifungal effects of the peptides were determined by a microplate reader (Altemaria, Fusarium) at OD590 nm or by visual screening of the plates (Bottytis, Cladosporium).
(§3) The lowest peptide concentration leading to complete inhibition of bacterial growth or spore germination/mycelial growth (minimal inhibition concentration, MIC) was determined for each organism-peptide combination. For each peptide concentration two identical inhibition assays were performed.

Botrytis cinerea = test: as above; format: cell-based; conditions: complete inhibition of spore germination/mycelial growth; Table 1
Protocol: as §1, §2, §3

Cladosporium herbarum = test: as above; format: cell-based; conditions: complete inhibition of spore germination/mycelial growth; Table 1
Protocol: as §1, §2, §3

Enterobacter cloacae = format: cell-based
Protocol: (§4) In-vitro inhibition assays were performed in sterile ELISA-plates (Greiner bio-one, Frickenhausen or Nunc, Wiesbaden). Antimicrobial peptides were dissolved in 0.01% acetic acid containing 0.2% BSA and stored at −20° C. […] After incubation for one day at 27° C. growth inhibition of the bacteria was analyzed by a ELISA microplate reader.

Klebsiella pneumoniae = format: cell-based
Protocol: as §4

Klebsiiella oxytoca = format: cell-based
Protocol: as §4

Pseudomonas aeruginosa = format: cell-based
Protocol: as §4

[1] = system: Staphylococcus epidermidis; format: cell-based
Protocol: as §4

Yersinia enterocolitica = format: cell-based
Protocol: as §4

Escherichia coli (DH5α) = format: cell-based
Protocol: (§5) In-vitro inhibition assays were performed in sterile ELISA-plates (Greiner bio-one, Frickenhausen or Nunc, Wiesbaden). Antimicrobial peptides were dissolved in 0.01% acetic acid containing 0.2% BSA and stored at −20° C. For inhibition assays dilutions of peptides ranging from 5 to 500 μg/ml were prepared and 10 μl of each concentration was loaded per well.
(§6) The optical density of bacteria overnight cultures were adjusted to 0.08-0.1 and diluted in BHI-medium (1:1000). 90 μl of this suspension containing about 10^5-10^6 CFU/ml of tested bacteria were added to each well resulting in final peptide concentrations of 0, 0.5, 1, 2, 5, 10, 20, and 50 μg/ml. After incubation for one day at 27° C. growth inhibition of the bacteria was analyzed by a ELISA microplate reader. The lowest concentration, in which there is no observable growth (>90% inhibition) is referred to as minimal inhibitory concentration (MIC).
(§7) In-vitro inhibition assays were performed as described in Example 5 above.

Staphylococcus aureus = format: cell-based
Protocol: as §5, §6, §7

[2] = system: Pectobacterium carotovorum sub. carotovorum; conditions: complete inhibition of bacterial growth; overnight 25° C.; Table 1
Xanthomonas vesicatoria = conditions: complete inhibition of bacterial growth; overnight 25° C.; Table 1
[3] = system: Pseudomonas syringae pv. tomato; conditions: complete inhibition of bacterial growth; overnight 25° C.; Table 1
[4] = system: Pseudomonas syringae pv. syringae; conditions: complete inhibition of bacterial growth; overnight 25° C.; Table 1
Pseudomonas corrugata = conditions: complete inhibition of bacterial growth; overnight 25° C.; Table 1

With KRRLAAFRAFRGALKSVLKK-NH2 [SP16] the “Minimal inhibition concentration (MIC)” value (Alternaria alternata) was over 100 µg/mL, the “Minimal inhibition concentration (MIC)” value (Botrytis cinerea) was over 100 µg/mL and the “Minimal inhibition concentration (MIC)” value (Cladosporium herbarum) was 20 µg/mL. The “Activity against human pathogens (MIC)” value (Enterobacter cloacae) was over 50 µg/mL, the “Activity against human pathogens (MIC)” value (Klebsiella pneumoniae) was over 50 µg/mL and the “Activity against human pathogens (MIC)” value (Klebsiiella oxytoca) was over 50 µg/mL. The “Activity against human pathogens (MIC)” value (Pseudomonas aeruginosa) was over 50 µg/mL, the “Activity against human pathogens (MIC)” value [1] was 20 µg/mL and the “Activity against human pathogens (MIC)” value (Yersinia enterocolitica) was over 50 µg/mL. The “Activity against human pathogens (MIC)” value (Escherichia coli (DH5α)) was 10 µg/mL, the “Activity against human pathogens (MIC)” value (Staphylococcus aureus) was over 50 µg/mL and the “Minimal inhibition concentration (MIC)” value [2] was over 40 µg/mL. For the same substance, the “Minimal inhibition concentration (MIC)” value (Xanthomonas vesicatoria) was 5 µg/mL, the “Minimal inhibition concentration (MIC)” value [3] was 5 µg/mL and the “Minimal inhibition concentration (MIC)” value [4] was 5 µg/mL. The “Minimal inhibition concentration (MIC)” value (Pseudomonas corrugata) was 2.5 µg/mL.
